Values quoted from earlier work as cited in US20110178105A1, “CLINICAL BENEFITS OF EICOSAPENTAENOIC ACID IN HUMANS” (E.I. DU PONT DE NEMOURS AND COMPANY, priority 2010, published 2011).

Conditions: human, in vivo; cited from earlier work

vitamin E
benefit in post-myocardial infarction patients: no benefit
